Results as given in patent US20240140970A1, “A […], AND PREPARATION METHOD AND USE THEREOF” (ASCENTAWITS PHARMACEUTICALS, LTD., priority 2021, published 2024).
Where “and” joins values, the source holds several entries; their conditions need not be identical. Equal entries are not always repeated.

Columns and labels:
[1] = Stability of AST-2660 in human urine at −20° C. and −70° C. for one month (LC-MS/MS); type: in vitro ADME
Description: (§1) The detection method established in example 6 was used to detect the content of AST-2660 in the human urine to be tested.
(§2) Matrix: the mixed normal human urine containing an additive Na2HPO4·12H2O. • a: the internal standard working solution: AST-2660-D8 was taken, dissolved with methanol, and diluted to prepare a solution containing about 100 ng per 1 ml. • b: the solution to be tested (no internal standard compound was added to the solution to be tested at this time): it was obtained by taking a blood sample to be tested. • c: the standard working solution (no internal standard compound was added to the standard working solution at this time): an appropriate amount of AST-2660 was taken and accurately weighed, dissolved with methanol and diluted to prepare a solution containing about 1.0 mg per 1 ml, which was used as the standard working stock solution. An appropriate amount of the standard working stock solution was taken, added with the matrix and diluted to prepare standard working solutions with different concentrations containing about 200 ng, 160 ng, 100 ng, 50 ng, 10 ng, 2.0 ng, 1.0 ng and 0.5 ng per 1 ml, respectively. (The solution was stored at −70° C.) • d: the quality control sample solution: an appropriate amount of AST-2660 was taken and accurately weighed, dissolved with methanol, and diluted to prepare a solution containing about 10 μg per 1 ml, which was used as the quality control working stock solution. An appropriate amount of the quality control working stock solution was taken, and added with the matrix to prepare quality control working solutions with different concentrations containing about 150 ng, 60 ng, 15 ng, 1.5 ng and 0.5 ng per 1 ml. (The solution was stored at −70° C.)
(§3) The solution to be tested, the standard working solution and the quality control sample solution were thawed at room temperature and mixed uniformly. 100 μl of the above solution was respectively taken, added with 20 μl of the internal standard and 500 μl of methanol, and vortexed for 3 minutes to mix uniformly, and then centrifuged for 30 minutes at 2143 rcf. 450 μl of supernatant was taken, and then centrifuged for 10 minutes in a 96-well plate at 2143 rcf. It was obtained by taking 300 μl of supernatant.
(§4) Liquid phase conditions: A SHARC 1, 3 μm, 2.1*50 mm or chromatograph column with equivalent performance was used; methanol solution containing low content of ammonium acetate was used; mobile phase B was acetonitrile; the gradient elution was performed according to the following table; column temperature: 20° C.; injection volume: 5 μl.
(§5) Mass spectrometric conditions: electrospray ion source with negative ion scanning mode; spray potential: −4500 V; ion source temperature: 500° C.; collision energy (CE): −22 eV; declustering potential (DP): −55V; entrance potential (EP): −10V; collision chamber exit potential (CXP): −16V; dwell time: 100 ms; high purity nitrogen was used for all gases; AST-2660 ions pairs: m/z 147.0→m/z 62.9; the internal standard AST-2660-D8 ion pairs: m/z 155.0→m/z 62.9.
(§6) The AST-2660 standard working solution, blank sample, zero concentration sample, solution to be tested and quality control working solution with different concentrations after extraction were respectively taken and injected into LC-MS/MS for detection.
(§7) Calculation results: the relationship function y=f (x) of the ratio of the peak area of AST-2660 to that of the internal standard was obtained from AST-2660 standard working solutions with different concentrations. The ratio of the peak area of AST-2660 to that of the internal standard was determined from the solution to be tested after extraction, and substituted into the relationship function y=f (x) to calculate the concentration of the metabolite II in the solution to be tested.

[2] = Freeze/thaw stability of AST-2660 in human urine (LC-MS/MS); type: in vitro ADME
Description: as §1, §2, §3, §4, §5, §6, §7

[3] = DilQC (10-fold dilution) nominal 1500 ng/ml, 32 days at −20° C.
[4] = DilQC (10-fold dilution) nominal 1500 ng/ml, 32 days at −70° C.
[5] = QC1 nominal 1.50 ng/ml, 32 days at −70° C. (actually tested on day 34)
[6] = QC4 nominal 150 ng/ml, 32 days at −20° C.
[7] = QC4 nominal 150 ng/ml, 32 days at −70° C.
[8] = human urine, DilQC (10-fold dilution) nominal 1500 ng/ml, 3 freeze/thaw cycles at −70° C.
[9] = human urine, DilQC (10-fold dilution) nominal 1500 ng/ml, 5 freeze/thaw cycles at −70° C.
[10] = human urine, QC1 nominal 1.50 ng/ml, 3 freeze/thaw cycles at −70° C.
[11] = human urine, QC1 nominal 1.50 ng/ml, 5 freeze/thaw cycles at −70° C.
[12] = human urine, QC4 nominal 150 ng/ml, 3 freeze/thaw cycles at −70° C.
[13] = human urine, QC4 nominal 150 ng/ml, 5 freeze/thaw cycles at −20° C.
[14] = human urine, QC4 nominal 150 ng/ml, 5 freeze/thaw cycles at −70° C.

O=P([O-])(N1CC1)N1CC1.[Na+] [AST-2660]
reduction of AST-2660 content ([1]; 32 days of storage at −20° C.): ~90%
change of AST-2660 content (in words) ([1]; 32 days of storage at −70° C.): almost no reduction
AST-2660 concentration, Mean value [1, 3]: 7.23 ng/mL
AST-2660 concentration, single replicates [1, 3]: 6.87 ng/mL and 7.70 ng/mL and 7.73 ng/mL and 6.60 ng/mL
RE (%) vs nominal [1, 3]: −99.5%
AST-2660 concentration, Mean value [1, 4]: 1483 ng/mL
AST-2660 concentration, single replicates [1, 4]: 1570 ng/mL and 1400 ng/mL and 1470 ng/mL and 1490 ng/mL
RE (%) vs nominal [1, 4]: −1.2%
AST-2660 concentration, single replicates ([1]; QC1 nominal 1.50 ng/ml, 32 days at −20° C.): <LLOQ (0.500) ng/ml
AST-2660 concentration, Mean value [1, 5]: 1.71 ng/mL
AST-2660 concentration, single replicates [1, 5]: 1.53 ng/mL and 1.97 ng/mL and 1.72 ng/mL and 1.60 ng/mL
RE (%) vs nominal [1, 5]: 13.7%
AST-2660 concentration, Mean value [1, 6]: 13.4 ng/mL
AST-2660 concentration, single replicates [1, 6]: 13.1 ng/mL and 12.4 ng/mL and 12.9 ng/mL and 15.2 ng/mL
RE (%) vs nominal [1, 6]: −91.1%
AST-2660 concentration, Mean value [1, 7]: 161 ng/mL
AST-2660 concentration, single replicates [1, 7]: 155 ng/mL and 159 ng/mL and 161 ng/mL and 168 ng/mL
RE (%) vs nominal [1, 7]: 7.2%
RE (accuracy), range over three concentration levels ([2]; freezing/thawing at −70° C. for up to 3 cycles, 1.5, 150 and 1500 ng/ml): RE: −11.8% to 12.5%
AST-2660 concentration, Mean value [2, 8]: 1540 ng/mL
AST-2660 concentration, single replicates [2, 8]: 1650 ng/ml and 1500 ng/ml (2×) and 1510 ng/ml
RE (%) vs nominal [2, 8]: 2.7%
AST-2660 concentration, single replicates ([2]; human urine, DilQC (10-fold dilution) nominal 1500 ng/ml, 5 freeze/thaw cycles at −20° C.): <LLOQ (5.00) ng/ml
AST-2660 concentration, Mean value [2, 9]: 1508 ng/mL
AST-2660 concentration, single replicates [2, 9]: 1490 ng/ml and 1500 ng/ml (2×) and 1540 ng/ml
RE (%) vs nominal [2, 9]: 0.5%
AST-2660 concentration, Mean value [2, 10]: 1.60 ng/mL
AST-2660 concentration, single replicates [2, 10]: 1.69 ng/mL and 1.72 ng/mL and 1.47 ng/mL and 1.51 ng/mL
RE (%) vs nominal [2, 10]: 6.5%
AST-2660 concentration, single replicates ([2]; human urine, QC1 nominal 1.50 ng/ml, 5 freeze/thaw cycles at −20° C.): <LLOQ (0.500) ng/ml
AST-2660 concentration, Mean value [2, 11]: 1.73 ng/mL
AST-2660 concentration, single replicates [2, 11]: 2.14 ng/mL and 1.58 ng/mL and 1.68 ng/mL and 1.52 ng/mL
RE (%) vs nominal [2, 11]: 15.3%
AST-2660 concentration, Mean value [2, 12]: 149 ng/mL
AST-2660 concentration, single replicates [2, 12]: 145 ng/ml and 148 ng/ml (2×) and 154 ng/ml
RE (%) vs nominal [2, 12]: −0.8%
AST-2660 concentration, Mean value [2, 13]: 13 ng/mL
AST-2660 concentration, single replicates [2, 13]: 12.2 ng/mL and 13.0 ng/mL and 12.3 ng/mL and 12.5 ng/mL
RE (%) vs nominal [2, 13]: −91.7%
AST-2660 concentration, Mean value [2, 14]: 173 ng/mL
AST-2660 concentration, single replicates [2, 14]: 172 ng/ml (2×) and 169 ng/ml and 178 ng/ml
RE (%) vs nominal [2, 14]: 15.2%
reduction of AST-2660 content ([2]; human urine, freeze-thaw process from −20° C. to room temperature): ~90%
change of AST-2660 content (in words) ([2]; human urine, freeze-thaw process from −70° C. to room temperature): almost no reduction
